Results on 27 compounds are retold here after US10908153B2, “Pseudomonas aeruginosa inhibitor compounds” (priority 2015, dated 2021).

The structures appear in SMILES notation.

The target of the assay is T1, PscE-PscG interaction (Pseudomonas aeruginosa, UniProt P95435+Q9I317).
T1 construct: made in house; host or cells: E. coli
Briefly: ELISA test of inhibition of the PscE-PscG interaction. The assay is classed as binding. Particulars: for inhibition at 25 µM: read-out: % inhibition PscE-PscG at 50 μm; for PscE-PscG at 50 μM: inhibition by new synthetic analogues at 50 μM, PscG 2.2 μM, PscE solution 3 μM; for inhibition at 50 µM: 4 h, read-out: PscE-PscG at 50 μM; for inhibitory effect compared with clioquinol: ELISA test, 50 μM, Table 2. As to the method: 50 μL of PscG protein at 1 μM (for screening libraries) or 2.2 μM (for screening newly synthesized molecules) is incubated in a NUNC 96-well plate for 8 h at 4° C. The wells are washed three times with 200 μL of 1× PBS/0.1% Tween20®. The wells are treated overnight at 4° C. with 200 μL of a 5% milk solution in 1× PBS/0.1% Tween20®. The solution is then discarded, and the plate is drained dry.
The test is carried out as follows:
Negative control (lowest signal level): 100 μL of buffer ([…] Tris-HCl, 250 mM NaCl, pH 8.0);
Positive control (highest signal level): 50 μL of buffer and 50 μL of a test solution at 25 (library screening) or 3 μM (screening of analogue molecules) of the PscE protein;
Test of the inhibitors: 40 μL buffer, 50 μL of a solution at 25 μM (library screening) or 3 μM (screening of analogue molecules) of PscE protein and 10 μL of the solution containing the inhibitor to be tested.
The solutions are left for 4 h at room temperature.
The wells are washed three times with 200 μL of 1× PBS/0.1% Tween20®. The anti-PscE antibody diluted to 1:2,000 in 1× PBS/0.1% Tween20®, 50 μL, is added and the whole is left 2 h at room temperature. The wells are washed three times with 200 μL of 1× PBS/0.1% Tween20®. The HRP-conjugated anti-mouse antibody is diluted to 1:5,000 in 1× PBS/0.1% Tween20® and 50 μL is added and left for 2 h at room temperature. The wells are washed three times with 200 μL of 1× PBS/0.1% Tween20®.
The ELISA test is developed by adding 50 μL of TMB reagent followed by incubation for 15 minutes at room temperature in the dark. The reaction is stopped by adding 50 μL of 2N HCl. The plate is read at 450 nm.
Background: In an ELISA, binding on a coated surface is turned into a signal by an enzyme label.

T1 sequence (Q9I317 whole entry): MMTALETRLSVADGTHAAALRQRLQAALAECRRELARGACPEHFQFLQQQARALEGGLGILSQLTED
T1 sequence (P95435 whole entry): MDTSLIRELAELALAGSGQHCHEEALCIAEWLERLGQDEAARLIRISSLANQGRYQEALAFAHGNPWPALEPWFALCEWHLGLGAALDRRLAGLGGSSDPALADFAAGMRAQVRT

One may read the IC50 as the concentration that gives 50% inhibition. Low values mean greater potency in that assay, high ones weaker potency in that assay. In the case of `NC(CO)C(=O)NNCc1ccc(O)c(O)c1O` (stereo not drawn) [Benserazide, reference compound], the IC50 was 11 µM and the inhibition at 25 µM is 86.3%.
`Oc1c(I)cc(Cl)c2cccnc12` [Clioquinol, reference compound]: the half-maximal inhibitory concentration (IC50) was determined as 5 µM and the inhibition at 25 µM came out at 93.7%. The “PscE-PscG at 50 μM” value (240 min) was found to be 45.2%.
For the compound `Cc1cc2c(C(C)C)c(O)c(O)c(C=O)c2c(O)c1-c1c(C)cc2c(C(C)C)c(O)c(O)c(C=O)c2c1O` [Gossypol, reference compound], the inhibition at 25 µM was 73.9%.
The same measure, in the same setting: the value for `CC1(C)CC[C@]2(C(=O)O)CC[C@]3(C)C(=CC[C@@H]4[C@@]5(C)CC[C@H](O)[C@@](C)(CO)[C@@H]5CC[C@]43C)[C@@H]2C1` [Hederagenin, reference compound] was 58%; that for `O=c1c(O)c(-c2cc(O)c(O)c(O)c2)oc2cc(O)cc(O)c12` [Myricetin, reference compound] was 80.5%.
Regarding `O=C(O)CN(CCN(CC(=O)O)CC(=O)O)CCN(CC(=O)O)CC(=O)O` [Pentetic acid, reference compound], under “primary screening of libraries, 50 μm compound, PscG 1 μM, PscE solution 25 μM”, the “% inhibition PscE-PscG at 50 μm” value was found to be 94%.
On to `[N-]=[N+]=NCCCCOCCCc1ccc[n+](CCCCOCCCc2cccnc2)c1` [molecule 17, 3-(3-(4-azidobutoxy)propyl)-1-(4-(3-(pyridin-3-yl)propoxy)butyl)pyridinium chloride], for which the “PscE-PscG at 50 μM” value is “no inhibition”.
Still for that read-out and setting: the value for `[N-]=[N+]=NCCCCOCCCc1ccc[n+](CCCCCCOCCCc2cccnc2)c1` [molecule 18, 3-(3-(4-azidobutoxy)propyl)-1-(6-(3-(pyridin-3-yl)propoxy)hexyl)pyridinium chloride] was “no inhibition”.
Regarding `[N-]=[N+]=NCCCCCCOCCCc1ccc[n+](CCCCOCCCc2cccnc2)c1` [molecule 19, 3-(3-(6-azidohexyloxy)propyl)-1-(4-(3-(pyridin-3-yl)propoxy)butyl)pyridinium chloride], the inhibition at 50 µM was 19.8%.
As to `[N-]=[N+]=NCCCCOCCCc1ccc[n+](CCCCCCCCOCCCc2cccnc2)c1` [molecule 20, 3-(3-(4-azidobutoxy)propyl)-1-(8-(3-(pyridin-3-yl)propoxy)octyl)pyridinium chloride], the “PscE-PscG at 50 μM” value is given as “no inhibition”.
`[N-]=[N+]=NCCCCCCOCCCc1ccc[n+](CCCCCCCCOCCCc2cccnc2)c1` [molecule 22, 3-(3-(6-azidohexyloxy)propyl)-1-(8-(3-(pyridin-3-yl)propoxy)octyl)pyridinium chloride]: the inhibition at 50 µM was found to be 88.8% and the “inhibitory effect compared with clioquinol” value is “superior to clioquinol”.
As to `[N-]=[N+]=NCCCCCCCCCCOCCCc1ccc[n+](CCCCCCOCCCc2cccnc2)c1` [molecule 24, 3-(3-(10-azidodecyloxy)propyl)-1-(6-(3-(pyridin-3-yl)propoxy)hexyl)pyridinium chloride], the inhibition at 50 µM turned out to be 38.6%.
On the same count and under the same terms, the value for `[N-]=[N+]=NCCCCCCCCCCCCOCCCc1ccc[n+](CCCCOCCCc2cccnc2)c1` [molecule 26, 3-(3-(12-azidododecyloxy)propyl)-1-(4-(3-(pyridin-3-yl)propoxy)butyl)pyridinium chloride] was 44.2%; that for `[N-]=[N+]=NCCCCCCOCCCc1ccc[n+](CCCCCCCCCCOCCCc2cccnc2)c1` [molecule 27, 3-(3-(6-azidohexyloxy)propyl)-1-(10-(3-(pyridin-3-yl)propoxy)decyl)pyridinium chloride] was 39.6%.
For `[N-]=[N+]=NCCCCCCOCCCc1ccc[n+](CCCCCCCCCCCCOCCCc2cccnc2)c1` [molecule 28, 3-(3-(6-azidohexyloxy)propyl)-1-(12-(3-(pyridin-3-yl)propoxy)dodecyl)pyridinium chloride], the inhibition at 50 µM stood at 37.8%.
On the same count and under the same terms, the value for `[N-]=[N+]=NCCCCCCCCOCCCc1ccc[n+](CCCCCCCCCCOCCCc2cccnc2)c1` [molecule 29, 3-(3-(8-azidooctyloxy)propyl)-1-(10-(3-(pyridin-3-yl)propoxy)decyl)pyridinium chloride] was 24%.
With `[N-]=[N+]=NCCCCCCCCCCOCCCc1ccc[n+](CCCCCCCCCCOCCCc2cccnc2)c1` [molecule 30, 3-(3-(10-azidodecyloxy)propyl)-1-(10-(3-(pyridin-3-yl)propoxy)decyl)pyridinium chloride], the inhibition at 50 µM is 52.8% and the “inhibitory effect compared with clioquinol” value was “superior to clioquinol”.
`[N-]=[N+]=NCCCCCCCCCCCCOCCCc1ccc[n+](CCCCCCCCOCCCc2cccnc2)c1` [molecule 31, 3-(3-(12-azidododecyloxy)propyl)-1-(8-(3-(pyridin-3-yl)propoxy)octyl)pyridinium chloride]: the inhibition at 50 µM came to 82.9% and the “inhibitory effect compared with clioquinol” value is on record as “superior to clioquinol”.
The like results for `[N-]=[N+]=NCCCCCCCCCCCCOCCCc1ccc[n+](CCCCCCCCCCOCCCc2cccnc2)c1` [molecule 33, 3-(3-(12-azidododecyloxy)propyl)-1-(10-(3-(pyridin-3-yl)propoxy)decyl)pyridinium chloride] were, in that order, 54.2% and “superior to clioquinol”.
For `[N-]=[N+]=NCCCCCCCCCCCCOCCCc1ccc[n+](CCCCCCCCCCCCOCCCc2cccnc2)c1` [molecule 34, 3-(3-(12-azidododecyloxy)propyl)-1-(12-(3-(pyridin-3-yl)propoxy)dodecyl)pyridinium chloride], the inhibition at 50 µM came out at 30.6%.
Turning to `CC(=O)Oc1c(-c2cn(CCCCOCCCc3ccc[n+](CCCCOCCCc4cccnc4)c3)nn2)cc(Cl)c2cccnc12` [molecule 35, 3-(3-(4-(4-(8-acetoxy-5-chloroquinolin-7-yl)-1H-1,2,3-triazol-1-yl)butoxy)propyl)-1-(4-(3-(pyridin-3-yl)propoxy)butyl)pyridinium chloride], the inhibition at 50 µM was 29.8%.
Turning to `CC(=O)Oc1c(-c2cn(CCCCOCCCc3ccc[n+](CCCCCCOCCCc4cccnc4)c3)nn2)cc(Cl)c2cccnc12` [molecule 36, 3-(3-(4-(4-(8-acetoxy-5-chloroquinolin-7-yl)-1H-1,2,3-triazol-1-yl)butoxy)propyl)-1-(6-(3-(pyridin-3-yl)propoxy)hexyl)pyridinium chloride], the inhibition at 50 µM is 54.2% and the “inhibitory effect compared with clioquinol” value is listed as “superior to clioquinol”.
The corresponding values for `CC(=O)Oc1c(-c2cn(CCCCCCOCCCc3ccc[n+](CCCCOCCCc4cccnc4)c3)nn2)cc(Cl)c2cccnc12` [molecule 37, 3-(3-(6-(4-(8-acetoxy-5-chloroquinolin-7-yl)-1H-1,2,3-triazol-1-yl)hexyloxy)propyl)-1-(4-(3-(pyridin-3-yl)propoxy)butyl)pyridinium chloride] are 92.5% and “superior to clioquinol”.
In the case of `CC(=O)Oc1c(-c2cn(CCCCOCCCc3ccc[n+](CCCCCCCCOCCCc4cccnc4)c3)nn2)cc(Cl)c2cccnc12` [molecule 38, 3-(3-(4-(4-(8-acetoxy-5-chloroquinolin-7-yl)-1H-1,2,3-triazol-1-yl)butoxy)propyl)-1-(8-(3-(pyridin-3-yl)propoxy)octyl)pyridinium chloride], the inhibition at 50 µM was determined as 27.3%.
Regarding `CC(=O)Oc1c(-c2cn(CCCCCCOCCCc3ccc[n+](CCCCCCOCCCc4cccnc4)c3)nn2)cc(Cl)c2cccnc12` [molecule 39, 3-(3-(6-(4-(8-acetoxy-5-chloroquinolin-7-yl)-1H-1,2,3-triazol-1-yl)hexyloxy)propyl)-1-(6-(3-(pyridin-3-yl)propoxy)hexyl)pyridinium chloride], the inhibition at 50 µM was 97.3% and the “inhibitory effect compared with clioquinol” value is listed as “superior to clioquinol”.
The like results for `CC(=O)Oc1c(-c2cn(CCCCCCOCCCc3ccc[n+](CCCCCCCCOCCCc4cccnc4)c3)nn2)cc(Cl)c2cccnc12` [molecule 40, 3-(3-(6-(4-(8-acetoxy-5-chloroquinolin-7-yl)-1H-1,2,3-triazol-1-yl)hexyloxy)propyl)-1-(8-(3-(pyridin-3-yl)propoxy)octyl)pyridinium chloride] were, in that order, 87.2% and “superior to clioquinol”.
The like results for `CC(=O)Oc1c(-c2cn(CCCCCCCCOCCCc3ccc[n+](CCCCCCOCCCc4cccnc4)c3)nn2)cc(Cl)c2cccnc12` [molecule 41, 3-(3-(8-(4-(8-acetoxy-5-chloroquinolin-7-yl)-1H-1,2,3-triazol-1-yl)octyloxy)propyl)-1-(6-(3-(pyridin-3-yl)propoxy)hexyl)pyridinium chloride] were, in that order, 69.1% and “superior to clioquinol”.
